Data reported in patent US7034110B2, “Method of identifying chemical compounds having selected properties for a particular application” (ArQule, Inc., priority 1994, dated 2006).
Where two headings read alike, the source gives them in different places.

Assays:
[1] = target: chymotrypsin (Bos taurus, UniProt P00766); assay: competitive inhibition of chymotrypsin, standard assay using a BTEE substrate; format: biochemical
Method: The set of molecules where X=CH2 was tested as competitive inhibitiors of the enzyme chymotrypsin in a standard assay using a BTEE substrate.

[2] = boiling in 6 N NaOH for 24 hrs; cited from earlier work

| Ki [1] [µM] | Structure (SMILES) | further results |
| --- | --- | --- |
| 500 | O=C([N-][N+]1(CC(O)c2ccccc2)CCCCC1)c1ccccc1 (centres unmarked) [R1=Ph, R2=Ph] |  |
|  | CC(=O)[N-][N+]1(CC(C)O)CCCCC1 (centres unmarked) [R1=Me, R2=Me] | Ki ([1]; competitive inhibition, BTEE substrate, set of molecules where X=CH2): not be an inhibitor |
| 200 | CC(=O)[N-][N+]1(CC(O)c2ccccc2)CCCCC1 (centres unmarked) [R1=Ph, R2=Me] |  |
|  | CN(C)C.NC(=O)c1ccccc1 [trimethyl amine benzamide] | hydrolytic stability [2]: unchanged |
| 130 | CC(O)C[N+]1([N-]C(=O)c2ccccc2)CCCCC1 (centres unmarked) [R1=Me, R2=Ph] |  |
